Publication PMC3502291, “Identification of Small Molecule Inhibitors of PTPσ through an Integrative Virtual and Biochemical Approach” (PLoS ONE, 2012)
Values belong to the molecule of their own block, whether it stands above or below them.

What was measured:
Type in all cases: biochemical
[1] = molecular target: T1, PTPσ (Homo sapiens, UniProt Q13332); experiment: pNPP phosphatase assay with purified GST-PTPσ, positive control
T1 construct: gene PTPRS; GST-tagged recombinant PTPσ, all residues C-terminal to the transmembrane domain (BC104812 cDNA; aa 883-1501)
T1 sequence (Q13332 1330-1948): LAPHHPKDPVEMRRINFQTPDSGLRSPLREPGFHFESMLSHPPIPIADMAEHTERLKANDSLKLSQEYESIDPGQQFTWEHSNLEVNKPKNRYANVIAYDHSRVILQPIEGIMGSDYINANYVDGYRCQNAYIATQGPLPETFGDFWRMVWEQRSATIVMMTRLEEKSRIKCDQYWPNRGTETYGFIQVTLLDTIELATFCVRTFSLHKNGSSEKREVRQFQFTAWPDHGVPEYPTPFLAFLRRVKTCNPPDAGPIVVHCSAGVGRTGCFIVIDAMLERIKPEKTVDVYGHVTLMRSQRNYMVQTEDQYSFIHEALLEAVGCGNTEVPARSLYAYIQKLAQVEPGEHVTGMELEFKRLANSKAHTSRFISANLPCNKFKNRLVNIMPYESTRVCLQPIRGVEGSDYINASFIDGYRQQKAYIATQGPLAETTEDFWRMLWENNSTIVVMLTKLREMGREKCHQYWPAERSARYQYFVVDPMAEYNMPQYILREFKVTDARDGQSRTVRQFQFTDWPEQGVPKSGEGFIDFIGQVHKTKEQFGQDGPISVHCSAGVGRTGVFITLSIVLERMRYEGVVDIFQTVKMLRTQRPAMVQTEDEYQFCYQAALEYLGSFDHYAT

[2] = molecular target: T1, PTPσ; experiment: pNPP phosphatase assay with purified GST-PTPσ, dose-response, with and without catalase
[3] = molecular target: T1, PTPσ; experiment: Km from initial velocities of dephosphorylation ([…] nm absorbance)

Molecule: [O]=[V]([OH])([OH])[OH] [Na3VO4, sodium orthovanadate]
- pNPP phosphatase assay with purified GST-PTPσ, positive control [1]: Sodium orthovanadate (Na3VO4) is a pan inhibitor of PTPs and was included as a positive control

- IC50 [2]: 10 µM
Molecule: O=C(C=CNc1cc([N+](=O)[O-])ccc1O)c1ccc(Cl)c(Cl)c1 [compound 36, 1-(3,4-dichlorophenyl)-3-[(2-hydroxy-5-nitrophenyl)amino]-2-propen-1-one]

Molecule: para-nitrophenyl phosphate [pNPP]
- Km [3]: 250 µM
